Reference: US11485742B2, “2-azaspiro[3.4]octane derivatives as M4 agonists” (NOVARTIS AG, priority 2019, dated 2022)

Target: T1, Cloned human M1 receptor (CHRM1) (Homo sapiens, UniProt P11229)
T1 construct: expressed in transfected cells; host or cells: HEK293
T1 sequence (P11229 1-460): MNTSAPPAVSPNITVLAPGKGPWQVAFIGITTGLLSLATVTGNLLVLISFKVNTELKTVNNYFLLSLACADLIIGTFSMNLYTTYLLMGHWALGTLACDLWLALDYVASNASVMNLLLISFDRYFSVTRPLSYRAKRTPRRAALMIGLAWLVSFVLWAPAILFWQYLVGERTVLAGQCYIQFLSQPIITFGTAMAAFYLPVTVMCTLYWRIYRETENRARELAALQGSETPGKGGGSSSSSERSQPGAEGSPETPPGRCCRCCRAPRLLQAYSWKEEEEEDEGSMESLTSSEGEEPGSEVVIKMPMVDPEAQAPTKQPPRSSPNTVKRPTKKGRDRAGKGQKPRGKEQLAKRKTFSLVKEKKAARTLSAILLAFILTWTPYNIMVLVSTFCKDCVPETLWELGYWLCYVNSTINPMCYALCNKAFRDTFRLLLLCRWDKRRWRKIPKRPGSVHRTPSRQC
Test: CHRM1 Ca++ Flux Assay (HEK293 M1 cells, agonist mode)
Type: cell-based
Settings: for M1 FDSS PA % / Emax: Percent Activity (PA); for EC50: geometric mean if tested more than once, read-out: M1 FDSS EC50; for Emax: read-out: M1 FDSS PA %
Method: The above examples were characterized by measuring the intracellular mobilization of Ca^++ ions caused by signaling events mediated by the receptor. The Intra-cellular Calcium flux levels were captured by the highly sensitive Ca^++ indicator, Calcium Assay Kit (BD Biosciences; Catalog Number 640178. The fluorescent activity from all receptors were monitored by the fluorescent imager, FDSS 7000EX (Hamamatsu) over a span of 3 minutes. The change in Calcium flux was readily captured upon activation with the muscarinic orthosteric agonist, Carbachol.
Cloned human M1 receptor (CHRM1) was stably expressed in HEK293 cells and were grown and maintained in a monolayer culture with DMEM/High Glucose (Life Technologies) supplemented with 10% Fetal Bovine Serum, 1×Pen-Strep, and 0.5 mg/mL Geneticin in a humidified atmosphere (5% CO2) at 37° C. The cultures were grown to 90% confluency in T150 flasks (Corning) and washed with 1×DPBS and lifted with 0.05% Trypsin (Life Technologies). The cells were then spun (1K rpm, 3 minutes) and frozen using Recovery Cell Culture Freezing Media (Gibco Technologies). Cells were stored in liquid nitrogen and thawed a day before the assay.
Prior to the day of the assay, stable HEK293 M1 cells were thawed and plated on 384 well black walled clear bottom TC treated plates (Greiner Cat #781091) at 25K cells/well with DMEM/High Glucose supplemented with 10% FBS (Hyclone) Pen-Strep (Life Technologies) and kept overnight in a humidified atmosphere (5% CO2) at 37° C. The following day, cells were loaded with 20 uL Ca^++ dye (BD Biosciences) using Loading Buffer (HBSS +Ca/+Mg, 20 mM HEPES) and placed back in cell incubator for a minimum of 1 hour. The dye was replaced with 45 μL Assay Buffer (HBSS −Ca/−Mg, 20 mM HEPES) and kept at room temperature prior to running on cell imager. Compounds were prepared in Assay Buffer and 5 uL was added to the cells. The FDSS 7000EX (Hamamatsu) was used to acquire Ca++ traces for 3 minutes from cells treated with 11 point dose in triplicate in order to generate dose response curves in agonist mode. All compounds were serially diluted in DMSO then prepared in Assay Buffer for Ca^++ flux studies. The dose response curves were generated from the average of triplicate wells obtained from each data point and used a non-linear regression of four parameter dose response algorithm. The Percent Activity (PA) was measured to EC100 of Carbachol.
If an Example was tested more than once in an assay, then the values below represent the geometric mean of the results from each independent experiment.

| SMILES | M1 FDSS PA % [%] | EC50 [nM] | Emax [%] |
| --- | --- | --- | --- |
| c1ccc([C@@H]2CCOC2)c(C2CCN([C@@H]3COC4(C3)CN(c3nnco3)C4)CC2)c1 (single isomer, unassigned) [Example 3B, (S)-2-(1,3,4-oxadiazol-2-yl)-7-(4-(2-((S)-tetrahydrofuran-3-yl)phenyl)piperidin-1-yl)-5-oxa-2-azaspiro[3.4]octane or (S)-2-(1,3,4-oxadiazol-2-yl)-7-(4-(2-((R)-tetrahydrofuran-3-yl)phenyl)piperidin-1-yl)-5-oxa-2-azaspiro[3.4]octane] | 82 | 1120 | – |
| Fc1ccc([C@H]2CCOC2)c(C2CCN([C@@H]3COC4(C3)CN(c3nnco3)C4)CC2)c1 (single isomer, unassigned) [Example 3E, (S)-7-(4-(5-fluoro-2-((R)-tetrahydrofuran-3-yl)phenyl)piperidin-1-yl)-2-(1,3,4-oxadiazol-2-yl)-5-oxa-2-azaspiro[3.4]octane or (S)-7-(4-(5-fluoro-2-((S)-tetrahydrofuran-3-yl)phenyl)piperidin-1-yl)-2-(1,3,4-oxadiazol-2-yl)-5-oxa-2-azaspiro[3.4]octane] | 86 | 695 | – |
| Fc1ccc([C@H]2CCOC2)c(C2CCN([C@@H]3COC4(C3)CN(c3nnco3)C4)CC2)c1 (single isomer, unassigned) [Example 3F, (S)-7-(4-(5-fluoro-2-((R)-tetrahydrofuran-3-yl)phenyl)piperidin-1-yl)-2-(1,3,4-oxadiazol-2-yl)-5-oxa-2-azaspiro[3.4]octane or (S)-7-(4-(5-fluoro-2-((S)-tetrahydrofuran-3-yl)phenyl)piperidin-1-yl)-2-(1,3,4-oxadiazol-2-yl)-5-oxa-2-azaspiro[3.4]octane] | 86 | 595 | – |
| O[C@H]1CC[C@@H](c2ccc(F)cc2C2CCN([C@@H]3COC4(C3)CN(c3nnco3)C4)CC2)CC1 (single isomer, unassigned) [Example 3H, (1R,4s)-4-(2-(1-((S)-2-(1,3,4-oxadiazol-2-yl)-5-oxa-2-azaspiro[3.4]octan-7-yl)piperidin-4-yl)-4-fluorophenyl)cyclohexan-1-ol or (1S,4r)-4-(2-(1-((S)-2-(1,3,4-oxadiazol-2-yl)-5-oxa-2-azaspiro[3.4]octan-7-yl)piperidin-4-yl)-4-fluorophenyl)cyclohexan-1-ol] | 84 | 2410 | – |
| Fc1ccc(O[C@@H]2CCOC2)c(C2CCN([C@@H]3COC4(C3)CN(c3nnco3)C4)CC2)c1 [Example 1D, (S)-7-(4-(5-fluoro-2-(((R)-tetrahydrofuran-3-yl)oxy)phenyl)piperidin-1-yl)-2-(1,3,4-oxadiazol-2-yl)-5-oxa-2-azaspiro[3.4]octane] | – | 609 | 69 |
| CC(C)(C#N)COc1ccc(F)cc1C1CCN([C@@H]2COC3(C2)CN(c2nnco2)C3)CC1 [Example 1E, (S)-3-(2-(1-(2-(1,3,4-oxadiazol-2-yl)-5-oxa-2-azaspiro[3.4]octan-7-yl)piperidin-4-yl)-4-fluorophenoxy)-2,2-dimethylpropanenitrile] | – | 563 | 84 |
| Fc1ccc(OC[C@@H]2COCCO2)c(C2CCN([C@@H]3COC4(C3)CN(c3nnco3)C4)CC2)c1 [Example 1F, (S)-7-(4-(2-(((S)-1,4-dioxan-2-yl)methoxy)-5-fluorophenyl)piperidin-1-yl)-2-(1,3,4-oxadiazol-2-yl)-5-oxa-2-azaspiro[3.4]octane] | – | 368 | 83 |
| Fc1ccc(OC2CCOCC2)c(C2CCN([C@@H]3COC4(C3)CN(c3nnco3)C4)CC2)c1 [Example 1G, (S)-7-(4-(5-fluoro-2-((tetrahydro-2H-pyran-4-yl)oxy)phenyl)piperidin-1-yl)-2-(1,3,4-oxadiazol-2-yl)-5-oxa-2-azaspiro[3.4]octane] | – | 973 | 77 |
| Fc1cc(F)c(OC2CC3(COC3)C2)c(C2CCN([C@@H]3COC4(C3)CN(c3nnco3)C4)CC2)c1 [Example 2AA, (S)-7-(4-(2-((2-oxaspiro[3.3]heptan-6-yl)oxy)-3,5-difluorophenyl)piperidin-1-yl)-2-(1,3,4-oxadiazol-2-yl)-5-oxa-2-azaspiro[3.4]octane] | – | 6660 | 30 |

The remaining molecules from weak to strong by EC50, led by results:

| M1 FDSS PA % [%] | EC50 [nM] | Emax [%] | SMILES |
| --- | --- | --- | --- |
| – | 7000 | 65 | Fc1cc(F)c(OC2CCOCC2)c(C2CCN([C@@H]3COC4(C3)CN(c3nnco3)C4)CC2)c1 [Example 2BB, (S)-7-(4-(3,5-difluoro-2-((tetrahydro-2H-pyran-4-yl)oxy)phenyl)piperidin-1-yl)-2-(1,3,4-oxadiazol-2-yl)-5-oxa-2-azaspiro[3.4]octane] |
| 76 | 3310 | – | O[C@H]1CC[C@@H](c2ccc(F)cc2C2CCN([C@@H]3COC4(C3)CN(c3nnco3)C4)CC2)CC1 (single isomer, unassigned) [Example 3I, (1R,4s)-4-(2-(1-((S)-2-(1,3,4-oxadiazol-2-yl)-5-oxa-2-azaspiro[3.4]octan-7-yl)piperidin-4-yl)-4-fluorophenyl)cyclohexan-1-ol or (1S,4r)-4-(2-(1-((S)-2-(1,3,4-oxadiazol-2-yl)-5-oxa-2-azaspiro[3.4]octan-7-yl)piperidin-4-yl)-4-fluorophenyl)cyclohexan-1-ol] |
| 55 | 2240 | – | CC(C)(O)[C@H]1C[C@@H](Oc2ccc(F)cc2C2CCN([C@@H]3COC4(C3)CN(c3ncco3)C4)CC2)C1 (single isomer, unassigned) [Example 4U, 2-((1R,3s)-3-(4-fluoro-2-(1-((S)-2-(oxazol-2-yl)-5-oxa-2-azaspiro[3.4]octan-7-yl)piperidin-4-yl)phenoxy)cyclobutyl)propan-2-ol or 2-((1S,3r)-3-(4-fluoro-2-(1-((S)-2-(oxazol-2-yl)-5-oxa-2-azaspiro[3.4]octan-7-yl)piperidin-4-yl)phenoxy)cyclobutyl)propan-2-ol] |
| – | 2180 | 85 | Fc1cc(F)c(O[C@@H]2CCOC2)c(C2CCN([C@@H]3COC4(C3)CN(c3nnco3)C4)CC2)c1 [Example 2CC, (S)-7-(4-(3,5-difluoro-2-(((R)-tetrahydrofuran-3-yl)oxy)phenyl)piperidin-1-yl)-2-(1,3,4-oxadiazol-2-yl)-5-oxa-2-azaspiro[3.4]octane] |
| 63 | 909 | – | CC(C)(O)[C@H]1C[C@@H](Oc2ccc(F)cc2C2CCN([C@@H]3COC4(C3)CN(c3ncco3)C4)CC2)C1 (single isomer, unassigned) [Example 4T, 2-((1R,3s)-3-(4-fluoro-2-(1-((S)-2-(oxazol-2-yl)-5-oxa-2-azaspiro[3.4]octan-7-yl)piperidin-4-yl)phenoxy)cyclobutyl)propan-2-ol or 2-((1S,3r)-3-(4-fluoro-2-(1-((S)-2-(oxazol-2-yl)-5-oxa-2-azaspiro[3.4]octan-7-yl)piperidin-4-yl)phenoxy)cyclobutyl)propan-2-ol] |
| – | 631 | 87 | Fc1ccc(O[C@H]2CCOC2)c(C2CCN([C@@H]3COC4(C3)CN(c3nnco3)C4)CC2)c1 [Example 1H, (S)-7-(4-(5-fluoro-2-(((S)-tetrahydrofuran-3-yl)oxy)phenyl)piperidin-1-yl)-2-(1,3,4-oxadiazol-2-yl)-5-oxa-2-azaspiro[3.4]octane] |
| – | 598 | 72 | Fc1ccc(OC[C@@H]2CCOC2)c(C2CCN([C@@H]3COC4(C3)CN(c3nnco3)C4)CC2)c1 [Example 1B, (S)-7-(4-(5-fluoro-2-(((R)-tetrahydrofuran-3-yl)methoxy)phenyl)piperidin-1-yl)-2-(1,3,4-oxadiazol-2-yl)-5-oxa-2-azaspiro[3.4]octane] |
| – | 576 | 72 | Fc1ccc(OC[C@H]2COCCO2)c(C2CCN([C@@H]3COC4(C3)CN(c3nnco3)C4)CC2)c1 [Example 1C] |
